Reference: patent US5919896A, “PF4A receptor” (Genentech, Inc., priority 1997, dated 1999)

What was measured:
IL8R-A = conditions: Holmes et al., cited from earlier work
expressed IL-8 receptor = tested on: expressed IL-8 receptor
Excerpt: (§1) Oppenheim et al., supra; Korchak et al., J. Biol Chem., 259: 4076-4082 (1984). […] Oppenheim et al., supra.

[1] = tested on: human IL-8 receptor (clone pRK5B.il8r1.1); assay: Flow cytometry intracellular Ca++ response of 293 cells transfected with IL-8 receptor; type: cell-based
Procedure: (§2) After two days, the cells were loaded with 2 μM indo-1 acetoxymethyl ester in RPMI medium (Sigma) for 30 min at 37° C. Intracellular Ca^++ was measured with a Coulter 753 flow cytometer using the ratio of 405 and 525 nm fluorescence. Grynkiewicz et al., J. Biol. Chem., 260: 3440-3450 (1985).
(§3) No response is found to fMLP. […] Oppenheim et al., supra.

[2] = tested on: IL-8 receptor (clone pRK5B.il8r1.1) on transfected COS cells; assay: 125I-IL-8 binding competition on transfected COS cells; set-up: species or system human; conditions: COS cells transfected with clone pRK5B.il8r1.1
Procedure: Samanta et al., supra, Besemer et al., supra, Grob et al., supra.
Binding competition was performed with electroporated COS-7 cells after 1 day of expression in 6-well dishes (about 175,000 cells/dish). […] Wells were then washed, the cells harvested with trypsin, and counted. […] Neutrophil binding was performed as described (Pacholczyk et al., supra) but for 2 hr at 4° C.

human fMLP receptor = assay: Flow cytometry intracellular Ca++ response of 293 cells transfected with fMLP receptor; type: cell-based; conditions: 293 cells transfected with human fMLP receptor
Procedure: as §2, §1

[3] = tested on: receptor of FIG. 4 (8rr.20.15); assay: Response of recombinant cells bearing the FIG. 4 receptor to PF4 superfamily ligands; type: cell-based, human; conditions: preliminary experiments
[4] = tested on: receptor of FIG. 5 (8rr.9); assay: Response of recombinant cells bearing the FIG. 5 receptor to PF4 superfamily ligands; type: cell-based, human; conditions: preliminary experiments
IL8R-B = conditions: background, Murphy and Tiffany; read-out: affinity of IL8R-B for ligand; cited from earlier work
[5] = tested on: expressed human fMLP receptor; assay: 125I-IL-8 binding to the expressed human fMLP receptor
Excerpt: as §3

[6] = tested on: Murphy and Tiffany receptor; assay: Ligand affinity of the Murphy and Tiffany receptor (studies herein); type: binding, human
Excerpt: Murphy and Tiffany, supra, describe a receptor having a high degree of homology to the receptor of FIG. 2. […] This could be readily accomplished by routine screening methods.

human neutrophils = assay: Inhibition of 125I-IL-8 binding to human neutrophils; conditions: 475 pM of MGSA, no antibody
Excerpt: Cells were washed twice in the HBSS medium and resuspended to be 1×10^6 cells/ml.

[7] = tested on: receptor of FIG. 2 (IL-8 receptor); assay: MGSA binding to the receptor of FIG. 2; set-up: species or system human
Excerpt: Murphy and Tiffany, supra, describe a receptor having a high degree of homology to the receptor of FIG. 2. […] This could be readily accomplished by routine screening methods. […] On the other hand, antibodies that can discriminate between the FIG. 2 and Murphy and Tiffany receptors and bind only to one or the other are useful in diagnosis. The receptor of FIG. 2 binds MGSA poorly, in contrast to the Murphy and Tiffany receptor.

In the case of CCCCC/C=C\C[C@@H](O)/C=C/C=C/C=C\[C@@H](O)CCCC(=O)O [LTB4, reference compound], the “recognition of ligand by IL8R-A” value (IL8R-A) is listed as “does not recognize”.

With CSCC[C@H](NC=O)C(=O)N[C@@H](CC(C)C)C(=O)N[C@@H](Cc1ccccc1)C(=O)O [fMLP, f-Met-Leu-Phe, reference compound] the “binding of 3H-fMLP to the expressed IL-8 receptor” value (expressed IL-8 receptor) was “failed to detect any binding”, the “intracellular Ca++ response” value [1] was “No response” and the “competition of 125I-IL-8 binding” value [2] was “no competition”. The “recognition of ligand by IL8R-A” value (IL8R-A) was “does not recognize” and the “intracellular Ca++ response” value (human fMLP receptor) was “respond”.

For “IL-8: Purified human 72 amino acid IL-8 made in E. coli”, the “response of recombinant cells bearing the receptor” value [3] was “do not respond”, the “response of recombinant cells bearing the receptor” value [4] was “do not respond” and the “intracellular Ca++ response” value [1] was “clear transient increase”. The Kd (IL8R-B) was 2 nM, the Kd (IL8R-A; background, read-out: affinity of IL8R-A for ligand) was 2 nM and the “binding of 125I-IL-8 to the expressed human fMLP receptor” value [5] was “failed to detect any binding”. The “intracellular Ca++ response” value (human fMLP receptor) was “not” and the “IL-8 affinity compared with the receptor of FIG. 2” value [6] was “as high or higher”.

For “MCAF: macrophage chemotactic and activating factor, C-C peptide”, the “recognition of ligand by IL8R-A” value (IL8R-A) is listed as “does not recognize”.

For “MCP1: PF4 superfamily ligand tested on cells bearing the FIG. 4 and 5 receptors”, the “response of recombinant cells bearing the receptor” value [3] was “do not respond” and the “response of recombinant cells bearing the receptor” value [4] was “do not respond”.

In the case of “MGSA: NAP-3 (melanoma growth-stimulating activity [MGSA]/gro), C-X-C member of the PF4 superfamily”, the “response of recombinant cells bearing the receptor” value [3] is reported as “do not respond”, the “response of recombinant cells bearing the receptor” value [4] is reported as “do not respond” and the “inhibition of IL-8 binding to human neutrophils by MGSA” value (human neutrophils) is reported as “approximately 50%”. The Kd (IL8R-B) was 2 nM, the “binding of MGSA” value [7] was “poorly” and the “recognition of ligand by IL8R-A” value (IL8R-A) was “does recognize”. The Kd ([6]; read-out: affinity for MGSA) was 1 to 10 nM.

For TNF-α, the “recognition of ligand by IL8R-A” value (IL8R-A) is listed as “does not recognize”.

B1: NAP-2: neutrophil activating protein-2, C-X-C family member (protein, UniProt P02775 59-128, looked up)
Neutrophil-activating peptide …: AELRCMCIKTTSGIHPKNIQSLEVIGKGTHCNQVEVIATLKDGRKICLDPDAPRIKKIVQKKLAGDESAD
modifications: Neutrophil-activating peptide 2
For B1, the “recognition of ligand by IL8R-A” value (IL8R-A) is listed as “does recognize”.

B2: C5α: neutrophil chemoattractant C5a (protein, UniProt P01031 678-751, looked up)
C5a anaphylatoxin: TLQKKIEEIAAKYKHSVVKKCCYDGACVNNDETCEQRAARISLGPRCIKAFTECCVVASQLRANISHKDMQLGR
modifications: C5a anaphylatoxin
notes: neutrophil chemoattractant C5a
In the case of B2, the “recognition of ligand by IL8R-A” value (IL8R-A) is listed as “does not recognize”.

B3: Rantes: C-C peptide of the platelet factor 4 superfamily (protein)
chain: SPYSSDTTPCCFAYIARPLPRAHIKEYFYTSGKCSNPAVVFVTRKNRQVCANPEKKWVREYINSLEMS
With B3 the “response of recombinant cells bearing the receptor” value [3] was “do not respond” and the “response of recombinant cells bearing the receptor” value [4] was “do not respond”.
